pIC50, pKd: −log10 of the molar value. Where two headings read alike, the source gives them in different places.

IC50, Kd and GI50 data for five compounds are collected here from patent publication US9834521B2, “Choline kinase inhibitors” (ARIAD Pharmaceuticals, Inc., priority 2013, dated 2017).

Test [1] concerns the target T1, truncated form of human Choline kinase α1 that includes residues 75-457 (Homo sapiens, UniProt P35790).
T1 construct: made in house
The test can be described thus: Kinase Assay, coupled (ATP regeneration) LDH/PK assay, NADH absorbance. It counts as biochemical. As to the method: Absorbance of NADH (340 nm) was measured over 30 min using a SpectraMax M5 (Molecular Devices). Initial reaction velocity (ΔA340/Δt) was calculated and plotted as a function of inhibitor concentration in a 2-fold dilution series. IC50 values were obtained by fitting the relative velocities to a dose-response model.

The target in another test is T2, ChoKα protein (Homo sapiens, UniProt P35790).
T2 construct: made in house
Briefly: Binding affinity by surface plasmon resonance (SensiQ Pioneer, FastStep). How it is done: KD may be measured using surface plasmon resonance (BIAcore®) technology, see, e.g., Panayotou et al, Mol. Cell. […] ChoKα protein was immobilized by standard amine coupling methods on a COOH5 sensor chip installed in a SensiQ Pioneer system. Sensograms were measured using the FastStep™ screen method with an upper concentration of 500 nM. Kinetics and affinity were obtained from fits using a 1:1 binding model.

In test [2] the test system is phosphocholine levels in MDA-MB-415 cells. The test can be described thus: Phosphocholine Assay (1H-NMR) in MDA-MB-415 cells. The note with it: Homo sapiens, 24 hours of treatment, read-out: IC50 of pCh. It counts as cell-based. How it is done: (§1) 5×10^6 cells of each line were grown in the presence of increasing concentration of the test compound or vehicle (DMSO) for 24 hours, then counted and viability checked by Trypan Blue Exclusion protocol. 5×10^6 viable cells were washed twice in ice cold D-PBS, then solubilized by vortexing for 30 seconds in 6 mL ice cold 100% methanol. 6 mL of chloroform and 6 mL of water were added and the mixture vortexed again. After centrifugation for 10 minutes @ 5,220 rpms, 10 mL of the aqueous phase is removed and lyophilized. The samples were analyzed by ^1H-NMR to determine phosphocholine levels.
Dose dependent inhibition of phosphocholine levels in MDA-MB-415 cells by the compound provided in Example 55 was determined by ^1H-NMR analysis after 24 hours of treatment with increasing concentrations consisting of 0.25 μM, 0.50 μM, 1.0 μM, 2.0 μM, 4.0 μM, 8.0 μM and 16 μM.

For the next test, the system named is cancer cell lines. The test can be described thus: Cellular Growth Inhibition Assay (CyQuant Cell Proliferation Assay Kit). In kind it is cell-based. As to the method:
Cellular Growth Inhibition AssayVehicle or compound treated cells were assessed for cell growth after 72 hours of treatment using the CyQuant® Cell Proliferation Assay Kit (Life Technologies, Grand Island, N.Y.). […] Data are shown as mean (±SD) from ≧2 separate experiments.

Test [3] relates to phosphocholine levels in MDA-MB-468 cells. The test can be described thus: Phosphocholine Assay (1H-NMR) in MDA-MB-468 cells. In kind it is cell-based. To be noted: Homo sapiens, 24 hours of treatment, read-out: IC50 of pCh. How it is done: as §1
Similarly, dose dependent inhibition of phosphocholine levels in MDA-MB-468 cells by the compound provided in Example 45 was determined by ^1H-NMR analysis after 24 hours of treatment with increasing concentrations consisting of 0.1 μM, 1.0 μM, 10 μM, 20 μM, and 80 μM. By this method, the IC50 of pCh was determined to be 3 μM of the compound provided in Example 45.

Setting [4] is: Examples not designated with an asterisk, footnote prints version 1 of the Kinase Assay, read-out: IC50.
Where [5] appears, read: SPR, 1:1 binding model, upper concentration 500 nM, read-out: Kd.
Setting [6] is: 72 hours of treatment, cell line not named, read-out: GI50.

T1 sequence (P35790 75-457): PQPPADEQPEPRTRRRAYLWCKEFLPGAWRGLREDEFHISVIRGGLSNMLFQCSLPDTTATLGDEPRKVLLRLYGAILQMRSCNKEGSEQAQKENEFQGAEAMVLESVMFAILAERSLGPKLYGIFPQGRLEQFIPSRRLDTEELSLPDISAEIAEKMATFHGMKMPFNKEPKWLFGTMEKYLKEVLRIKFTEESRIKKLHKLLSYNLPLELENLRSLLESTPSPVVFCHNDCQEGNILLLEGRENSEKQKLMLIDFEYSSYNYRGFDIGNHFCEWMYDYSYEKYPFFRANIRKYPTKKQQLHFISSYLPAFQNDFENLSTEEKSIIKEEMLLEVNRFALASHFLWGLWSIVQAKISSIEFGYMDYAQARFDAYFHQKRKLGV
T2 sequence (P35790 75-457): as above

As for `CN1CCCN(Cc2ccc(-c3ccc(CN4CCCN(C)CC4)cc3C#N)c(F)c2)CC1` [Example 55, 2′-fluoro-4,4′-bis((4-methyl-1,4-diazepan-1-yl)methyl)-[1,1′-biphenyl]-2-carbonitrile], the values for the pIC50 in test [1] and in test [2] were more than 6.70 and 6.12, respectively. In addition, the pKd on ChoKα protein was more than 7.00. In addition, the GI50 in the test on cancer cell lines (72 h) was less than 5 µM.
For `CN1CCCN(Cc2ccc(-c3ccc(C(=O)NC4CC4)cc3)c(C#N)c2)CC1` [Example 32, 2′-cyano-N-cyclopropyl-4′-((4-methyl-1,4-diazepan-1-yl)methyl)-[1,1′-biphenyl]-4-carboxamide], the pIC50 in test [1] (setting [4]) is more than 6.70. Besides, on ChoKα protein (setting [5]), the pKd was more than 4.22. In addition, the GI50 in the test with cancer cell lines (setting [6]) is less than 20 µM.
With `CN1CCCN(Cc2ccc(-c3ccc(CN4CCCN(C)CC4)cc3)cc2)CC1` [Example 45, 4,4′-bis((4-methyl-1,4-diazepan-1-yl)methyl)-1,1′-biphenyl], the pIC50 in test [1] was more than 6.70; in test [3], 5.52. The compound further gave a pKd at ChoKα protein of more than 4.22. The GI50 with cancer cell lines (72 h) was less than 5 µM.
Take `CN1CCCN(Cc2ccc(-c3ccc(CN4CCCN(C)CC4)c(Cl)c3)cc2)CC1` [Example 43, 4,4′-((3-chloro-[1,1′-biphenyl]-4,4′-diyl)bis(methylene))bis(1-methyl-1,4-diazepane)]: the pIC50 in test [1] is more than 6.70. The pKd on ChoKα protein was more than 6.70. Further, the GI50 in the test on cancer cell lines (72 h) is less than 5 µM.
For `CN1CCCN(Cc2ccc(-c3ccc4[nH]ncc4c3)c(C#N)c2)CC1` [Example 92, 2-(1H-indazol-5-yl)-5-((4-methyl-1,4-diazepan-1-yl)methyl)benzonitrile], in test [1] (setting [4]), the pIC50 was more than 7.00. In addition, the pKd at ChoKα protein (setting [5]) is more than 7.30. Besides, the GI50 in the test with cancer cell lines (setting [6]) was more than 20 µM.
